Results published in PubChem BioAssay AID463199 (Broad Institute, 2010).
Calls of active or inactive are those of the source.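 Rule for the calls: active = AC50, the dose giving half-maximal effect, exceeds a fixed cutoff for a compound that rescues yeast growth under heat; inactive = the rest, inconclusive results apart.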

Test system: S. cerevisiae Burl-1 ts mutant growth, BacTiter-Glo, 38.5C 24 h
Experiment: restored growth of temperature-sensitive Burl-1 yeast – whole organism, S. cerevisiae, Burl-1 ts mutant, luminescence, counter-screen for SUMOylation pathway inhibitor project, dose response (AID 463199)

SMILES | AC50
CC1(C)C2CC[C@]3(C)C(CC=C4[C@@H]5C[C@@](C)(CO)[C@@H](O)C[C@]56C[C@@H](OC6=O)[C@]43C)[C@@]2(C)CC[C@@H]1O (some centres undefined) | > 42 µM (inactive)
COc1ccc2[nH]c(C(=O)N/N=C/c3ccccc3OC)cc2c1 | > 42 µM (inactive)
Nc1nc2ccccc2cc1-c1cccs1 | > 42 µM (inactive)
O=S(=O)(Nn1c(O)c(C=C2N=c3ccccc3=N2)sc1=S)c1ccccc1 | > 42 µM (inactive)
CCCCCCOc1ccc(N2C(=O)CC(N3CCC(C(=O)OCC)CC3)C2=O)cc1 (centres undefined) | > 42 µM (inactive)
CC/C(=N\Nc1ccc([N+](=O)[O-])cc1)c1ccccc1 | > 42 µM (inactive)
CC1=C(C(=O)N2CCOCC2)C(c2ccc(O)cc2)NC(=S)N1 (centres undefined) | > 42 µM (inactive)
Fc1cccc(Nc2ncnc3sccc23)c1 | > 42 µM (inactive)
CC(C)(C)C(=O)NC1CCN(CC(=O)Nc2ccc3c(c2)OCO3)CC1 | > 42 µM (inactive)
CC(C)NC(=O)c1ccccc1-c1ccccc1 | > 42 µM (inactive)
COc1ccccc1-n1nnnc1SCC(=O)Nc1ccc(C)c(N)c1 | > 42 µM (inactive)
S=C(Nc1ccc(Cl)cc1)N1CCN(Cc2ccccc2)CC1 | > 42 µM (inactive)
O=C(CCSc1nnc(-c2ccncc2)o1)Nc1ccc(Cl)cc1 | > 42 µM (inactive)
O=C(NC1CCCCC1)N(Cc1cc2cc3c(cc2[nH]c1=O)OCCO3)C1CCCCC1 | > 42 µM (inactive)
COc1ccc(S(=O)(=O)N2CCCC2CNC(=O)C(=O)NCc2ccccn2)cc1 (centres undefined) | > 42 µM (inactive)
CCOC(=O)C1C(c2ccc(C)o2)NC(=O)NC1(O)C(F)(F)F (centres undefined) | > 42 µM (inactive)
CC(C)c1ccc2c(c1)CCC1C(C)(CN)CCCC21C (centres undefined) | > 42 µM (inactive)
CCOC(=O)C1CCN(CC(O)COCc2ccccc2)CC1 (centres undefined) | > 42 µM (inactive)
Nc1cc[n+](CC(=O)Nc2ccccc2)cc1 | > 42 µM (inactive)
CCN1CCCC1CN(Cc1cc2ccc(C)cc2[nH]c1=O)C(=S)Nc1ccccc1C(=O)OC (centres undefined) | > 42 µM (inactive)

SMILES | AC50
Cc1c(C(=O)NC(C)c2ccc(-n3ccnc3)cc2)cccc1[N+](=O)[O-] (centres undefined) | > 42 µM (inactive)
Cc1ccc(NC(=S)N2CCN(Cc3ccc4c(c3)OCO4)CC2)c(C)c1 | > 42 µM (inactive)
CCn1c(CSCc2ccc(F)cc2)nnc1SCC(=O)NCc1ccccc1 | > 42 µM (inactive)
Nc1cccc2c1C(=O)N(c1ccccc1)C2=O | > 42 µM (inactive)
Cc1cc(O)c(/C=N/Nc2cccc(Cl)c2)c(=O)o1 | > 42 µM (inactive)
Cc1ccccc1C(=O)NN(C)c1nc2ccccc2nc1C(F)(F)F | > 42 µM (inactive)
CC(C)CCNC(=O)Nc1ccc2c(c1)N(C)C(=O)CS2 | > 42 µM (inactive)
CCOC(=O)CNC(=O)c1c(C)nn(C)c1Cl | > 42 µM (inactive)
CCCCSCCCNC(=O)Nc1cccc(OC)c1 | > 42 µM (inactive)
COc1ccccc1NC(NC(=O)c1ccco1)C(=O)c1ccccc1 (centres undefined) | > 42 µM (inactive)
COc1nc(OC)nc(N2CCC(C(=O)NC3CCCCCC3)CC2)n1 | > 42 µM (inactive)
CCOC(=O)CCN(c1ccccc1)S(=O)(=O)c1ccc(-c2ccc(=O)[nH]n2)s1 | > 42 µM (inactive)
Cc1cc(C)nc(SCC2COc3ccccc3O2)n1 (centres undefined) | > 42 µM (inactive)
O=C(Nc1ccc(OC(F)(F)F)cc1)c1ccc2ccccc2n1 | > 42 µM (inactive)
Cc1sc(-n2c(C)cc(C=C3C(=O)NC(=O)NC3=O)c2C)c(C#N)c1C | > 42 µM (inactive)
CCn1c(C)c(C(C)=O)c(N2CCN(c3ccc(F)cc3)CC2)nc1=S | > 42 µM (inactive)
COc1ccc(Nc2cc(NCCCO)c([N+](=O)[O-])c3nonc23)cc1 | > 42 µM (inactive)
Cc1ccc(SCC(=O)O/N=C(\N)c2cccc([N+](=O)[O-])c2)cc1 | > 42 µM (inactive)
O=C(O)c1ccc(/C=N/NC(=O)c2cc(-c3ccc4c5c(cccc35)CC4)n[nH]2)cc1 | > 42 µM (inactive)
